Assay results taken from patent US20010019728A1 (priority 1997, published 2001).
Where “and” joins values, the source holds several entries; their conditions need not be identical. Equal entries are not always repeated.

Experiments:
Settings in all cases: in vivo
Tylenchorhynchus spp. = tested on: Tylenchorhynchus spp.
[1] = tested on: total plant-parasitic nematode population
[2] = tested on: dagger nematode (Xiphinema index+Xiphinema americanum)
Xiphinema americanum = tested on: Xiphinema americanum
Xiphinema index = tested on: Xiphinema index
Nonparasitic nematodes = tested on: Nonparasitic nematodes
Fusarium oxysporum = tested on: Fusarium oxysporum

CCOP(=O)(NC(C)C)Oc1ccc(SC)c(C)c1 (stereo not shown) [FENAMIPHOS®, FENAMIPHOS]
Plant-parasitic Nematode Population: Tylenchorhynchus spp. (Tylenchorhynchus spp.): 0.00a per 250 cc soil
Plant-parasitic Nematode Population: Total [1]: 80.00a per 250 cc soil and 94.00a per 250 cc soil and 105.80a per 250 cc soil
decrease in overall total plant-parasitic nematode population relative to the untreated control [1]: 30% and 31%
decrease in overall total plant-parasitic nematodes populations relative to the untreated control [1]: 51%
reduction in group nematode population without considering the Helicotylenchus nematode species [1]: 12%
reduction in the dagger nematode (Xiphinema index+Xiphinema americanum) populations relative to T5 [2]: 73%
Plant-parasitic Nematode Population: Xiphinema americanum (Xiphinema americanum): 10.00a per 250 cc soil and 9.00a per 250 cc soil and 5.40a per 250 cc soil
decrease in the Xiphinema americanum populations relative to the untreated control (Xiphinema americanum): no effect
decrease of the Xiphinema americanum population relative to T5 (Xiphinema americanum): not controlled
Plant-parasitic Nematode Population: Xiphinema index (Xiphinema index): 30.00a per 250 cc soil
population increase in the soil Xiphinema index populations relative to the untreated control (Xiphinema index): 30%
reduction of Xiphinema index populations (Xiphinema index): 84%

CNC(=S)[S-].[Na+] [Metham Sodium 1X, Metham sodium]
Nonparasitic nematodes (Nonparasitic nematodes): 944a Nematodes/250 cc soil and 651d Nematodes/250 cc soil

CI [Methyl Iodide 0.5X, Methyl iodide]
Fusarium oxysporum (Fusarium oxysporum): 3.79a Log (cfu/g soil) and 3.44a Log (cfu/g soil)

C#CCBr [Propargyl Bromide, Propargyl bromide]
Fusarium oxysporum (Fusarium oxysporum): 1.26d Log (cfu/g soil) and 1.10cd Log (cfu/g soil)
Nonparasitic nematodes (Nonparasitic nematodes): 1,304a Nematodes/250 cc soil and 1,600cd Nematodes/250 cc soil
